According to US5382586A, “Aryl (or heteroaryl)piperazinylalkylazole derivatives, their preparation and their application as medicaments” (priority 1991, dated 1995):

Key:
[1] = tested on: conditioned avoidance response in male Wistar rats; assay: conditioned avoidance response test (inhibition of the conditioned avoidance response; anxiolytic/tranquillising activity); format: in vivo, rat (male Wistar); settings: D = 80 mg/kg, p.o.; rat; 45 min before test
Protocol: Male Wistar rats weighing 200 grammes which have been trained to jump over a barrier in an avoidance and escape cage (shuttle box) (Letica, reference LI 910 and LI 2700) within 30 seconds of their being introduced into the cage are used in this test.
The products having an anxiolytic or tranquillising activity suppress the conditioned avoidance response.
Training: day one: 11 trials at 3 minute intervals. Electric shock to the paws after 30 seconds (5 mA, 0.1 s, 10 s).
Days two and three: 2 trials per day, with the selected rats only [sum of the scores for the first day (with the exception of the first trial)>14].
Test day: groups formed by selected rats. Oral administration of the product or the vehicle 45 minutes before the start of the study.

[2] = tested on: norepinephrine-induced death in rats; assay: norepinephrine antagonism test in rats (antihypertensive activity); format: in vivo, rat (male Wister); settings: for Activity % (norepinephrine antagonistic antihypertensive activity): D = 40 mg/kg, i.p., rat, norepinephrine 1.25 mg/kg i.v. after 2 hours; for ED50: Rattus norvegicus, ip, 2 h, read-out: ED50 (norepinephrine antagonistic antihypertensive activity)
Protocol: This activity is manifested by the protection of animals before death induced by an intravenous injection of norepinephrine, which produces a hypertensive attack in rats.
Male Wister rats weighing 200 grammes are used in this test. The product to be studied is administered intraperitoneally and 1.25 mg/kg (i.v.) of norepinephrine are administered after 2 hours.
The initial administration dose in these studies is 40 mg/kg (i.p.).

[3] = tested on: immobility of mice; assay: desperate behaviour test (antidepressant activity); format: in vivo, mouse; settings: 30 mg/kg, i.p.; p < 0.05; control 118 s
Protocol: The desperate behaviour test in mice, described by R. D. Porsolt et al. (Arch. Int. Pharmacodyn. 1977, 229, 327-336), is used.
The animals are placed for 6 minutes in a cylinder containing water, from which they are not able to escape. The period of immobility between minutes 2 and 5 is determined for groups of 10 mice per dosage tested.
The product studied is administered i.p. 1 hour before the test. In this test the immobility of the animals is explained as being produced by their depressed state resulting from being faced with an adverse and insoluble situation in a hostile environment such as water.
In our test imipramine (30 mg/kg; i.p.) was used as reference product.

[4] = tested on: familiarisation process in mice; assay: light box/dark box test: familiarisation process (improvement of cognition); format: in vivo, mouse
Description: The influence of this product on the familiarisation process of mice in the light box/dark box test described by J. M. Barnes et al., (Pharmacol. Biochem. Behav., 1990, 35, 955-962) is studied. On the one hand, the effect on learning (the speed of familiarisation) and on the other hand the capacity for blocking contrary effects produced by escopolamine are studied.
The mouse is placed in the light zone of a box divided into two compartments, one brightly illuminated, the light box, and the other with little illumination, the dark box.
1) The number of times the mouse stands up on the hind paws in each compartment during a 5 minute period is counted (see Column 1 of the table below).
2) The activity in each compartment is given by counting the number of crossings through the squares which form the divisions of each compartment (see Column 2 of the table below).
3) The time passed in the dark box during the 5 minute counting period is determined (see Column 3 of the table below).
4) The initial latent period is determined, that is to say the time which elapses after the animal is placed in the light box, at the start of the test, before it enters the dark box (see Column 4 of the table below).
Two treatments with the vehicle are administered to the control animals per day. Two doses of 0.00001 ng/kg p.o. of compound 42 are administered per day to the animals treated with this product. The same operation is repeated daily for 5 days.
The animals learn to remain in the dark box for a longer period and to go into the box more rapidly.
On day six escopolamine (2×0.25 mg/kg, i.p.) is administered.
They recover the learned habit on day seven.

[5] = day 6, after 2 treatments with escopolamine (0.25 mg/kg, i.p.), Example 42 at 0.00001 ng/kg p.o. twice per day

Cc1nc(Cl)c(Cl)n1CCCCN1CCN(c2ccccc2Cl)CC1 [Example 38]
Activity % (inhibition of the conditioned avoidance response) [1]: 78%
Activity % (norepinephrine antagonistic antihypertensive activity) [2]: 100%
ED50 [2]: 1.3 mg/kg

Clc1cccc(N2CCN(CCCCn3cc(Cl)cn3)CC2)c1 [Example 39]
Activity % (inhibition of the conditioned avoidance response) [1]: 100%
Activity % (norepinephrine antagonistic antihypertensive activity) [2]: 0%

Cn1ccnc1N1CCN(CCCCn2cccn2)CC1 [Example 40]
Activity % (inhibition of the conditioned avoidance response) [1]: 28%
Activity % (norepinephrine antagonistic antihypertensive activity) [2]: 0%

COc1ccccc1N1CCN(CCn2cc(Cl)cn2)CC1 [Example 41]
Activity % (inhibition of the conditioned avoidance response) [1]: 52%
Activity % (norepinephrine antagonistic antihypertensive activity) [2]: 75%
ED50 [2]: 5 mg/kg

Clc1cnn(CCCCN2CCN(c3nsc4ccccc34)CC2)c1 [Example 43]
Activity % (inhibition of the conditioned avoidance response) [1]: 100%
Activity % (norepinephrine antagonistic antihypertensive activity) [2]: 66%

Cc1nc(Cl)c(Cl)n1CCCCN1CCN(c2nsc3ccccc23)CC1 [Example 44]
Activity % (inhibition of the conditioned avoidance response) [1]: 95%
Activity % (norepinephrine antagonistic antihypertensive activity) [2]: 100%

COc1ccccc1N1CCN(CCCNc2cc(C)nn2C)CC1 [Example 45, 1,3-dimethyl-5-{3-[4-(2-methoxyphenyl)-1-piperazinyl]-propylamino}-1H-pyrazole]
Activity % (inhibition of the conditioned avoidance response) [1]: 100%
Activity % (norepinephrine antagonistic antihypertensive activity) [2]: 100%
ED50 [2]: 2.8 mg/kg

CN(C)CCCN1c2ccccc2CCc2ccccc21 [Imipramine, reference compound]
Period of immobility [3]: 71 s

NC(=O)CN1CCCC1=O [Piracetam, reference compound]
cognition-improving activity ([4]; mice): no activity

CN1C2CC(OC(=O)C(CO)c3ccccc3)CC1C1OC12 (centres unmarked) [escopolamine, reference compound]
effect on the learned behaviour (control group) ([4]; 2×0.25 mg/kg, i.p., day six): the animals of the control group "forget" the learned behaviour
Activity within 5 min. period, dark (D) [4, 5]: 30
Activity within 5 min. period, light (L) [4, 5]: 67
Latent period L-D [4, 5]: 21
No. of times standing erect within 5 min period, dark (D) [4, 5]: 38
No. of times standing erect within 5 min period, light (L) [4, 5]: 59
Time in the box, dark (D) [4, 5]: 27
